Results taken from ChEMBL document CHEMBL2203026.

Key:
[1] = biological target: T1, Metabotropic glutamate receptor 3 (Homo sapiens, UniProt Q14832); assay: Negative allosteric modulation of mGlu3 assessed as thallium flux through GIRK channels by cell-based assay
Target sequence in this assay (Q14832 whole entry): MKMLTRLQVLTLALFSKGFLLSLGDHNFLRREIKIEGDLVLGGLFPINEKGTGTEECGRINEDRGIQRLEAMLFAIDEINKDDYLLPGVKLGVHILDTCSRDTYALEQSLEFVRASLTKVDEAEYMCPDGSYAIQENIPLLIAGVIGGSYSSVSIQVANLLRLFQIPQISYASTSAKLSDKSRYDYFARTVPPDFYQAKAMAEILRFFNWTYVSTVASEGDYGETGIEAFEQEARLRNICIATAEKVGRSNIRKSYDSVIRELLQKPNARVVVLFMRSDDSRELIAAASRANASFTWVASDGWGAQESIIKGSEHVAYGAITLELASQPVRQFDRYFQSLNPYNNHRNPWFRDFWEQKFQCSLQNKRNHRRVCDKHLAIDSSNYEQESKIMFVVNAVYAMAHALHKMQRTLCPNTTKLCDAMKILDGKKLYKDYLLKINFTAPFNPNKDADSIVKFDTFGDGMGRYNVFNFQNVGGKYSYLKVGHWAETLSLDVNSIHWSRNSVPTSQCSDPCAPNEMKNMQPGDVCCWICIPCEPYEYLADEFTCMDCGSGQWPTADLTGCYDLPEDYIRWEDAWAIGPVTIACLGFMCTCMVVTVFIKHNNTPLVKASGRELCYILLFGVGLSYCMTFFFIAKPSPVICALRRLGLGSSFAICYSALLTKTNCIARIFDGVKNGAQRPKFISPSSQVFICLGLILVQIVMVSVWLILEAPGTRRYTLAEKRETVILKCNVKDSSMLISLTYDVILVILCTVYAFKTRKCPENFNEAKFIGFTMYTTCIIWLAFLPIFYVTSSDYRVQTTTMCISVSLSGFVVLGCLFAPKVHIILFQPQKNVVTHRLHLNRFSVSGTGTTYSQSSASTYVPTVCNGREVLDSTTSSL

[2] = biological target: T1, Metabotropic glutamate receptor 3; assay: Negative allosteric modulation of mGlu3 assessed as inhibition of glutamate-induced thallium flux through GIRK channels by cell-based assay; design: concentration or dose not given beside the values; conditions: concentration not given here
Target sequence in this assay (Q14832 23-879 limits assumed): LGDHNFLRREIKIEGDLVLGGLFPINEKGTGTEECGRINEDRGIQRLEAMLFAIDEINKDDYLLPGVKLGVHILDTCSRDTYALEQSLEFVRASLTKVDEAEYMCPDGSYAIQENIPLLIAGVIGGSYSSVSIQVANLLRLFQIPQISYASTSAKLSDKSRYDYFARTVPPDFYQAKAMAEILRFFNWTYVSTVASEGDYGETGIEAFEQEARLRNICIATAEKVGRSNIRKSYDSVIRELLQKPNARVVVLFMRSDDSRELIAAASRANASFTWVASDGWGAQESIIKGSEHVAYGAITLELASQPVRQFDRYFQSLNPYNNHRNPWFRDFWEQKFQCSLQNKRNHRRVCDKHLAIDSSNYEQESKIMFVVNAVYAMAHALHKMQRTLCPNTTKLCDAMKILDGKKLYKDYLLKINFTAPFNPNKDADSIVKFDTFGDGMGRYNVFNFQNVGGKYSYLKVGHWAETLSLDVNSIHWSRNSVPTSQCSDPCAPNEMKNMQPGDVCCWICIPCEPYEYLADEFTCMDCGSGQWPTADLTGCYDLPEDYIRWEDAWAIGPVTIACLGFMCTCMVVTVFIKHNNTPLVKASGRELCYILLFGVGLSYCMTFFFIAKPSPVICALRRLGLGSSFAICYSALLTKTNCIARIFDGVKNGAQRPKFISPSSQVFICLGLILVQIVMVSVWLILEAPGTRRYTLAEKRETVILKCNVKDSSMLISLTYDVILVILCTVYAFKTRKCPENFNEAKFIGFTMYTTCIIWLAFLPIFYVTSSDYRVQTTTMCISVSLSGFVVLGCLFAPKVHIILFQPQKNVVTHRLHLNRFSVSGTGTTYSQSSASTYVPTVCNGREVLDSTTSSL

[3] = biological target: Metabotropic glutamate receptor 3 (Rattus norvegicus, UniProt P31422); assay: Negative allosteric modulation of rat mGlu3 assessed as assessed as thallium flux through GIRK channels by cell-based assay
[4] = biological target: T2, Metabotropic glutamate receptor 5 (Rattus norvegicus, UniProt P31424); assay: Positive allosteric modulation of rat mGlu5 expressed in HEK293 cells in presence of glutamate EC20 concentration by Fluo-2AM dye based fluorescence analysis; assay type: cell-based
Target sequence in this assay (P31424 whole entry): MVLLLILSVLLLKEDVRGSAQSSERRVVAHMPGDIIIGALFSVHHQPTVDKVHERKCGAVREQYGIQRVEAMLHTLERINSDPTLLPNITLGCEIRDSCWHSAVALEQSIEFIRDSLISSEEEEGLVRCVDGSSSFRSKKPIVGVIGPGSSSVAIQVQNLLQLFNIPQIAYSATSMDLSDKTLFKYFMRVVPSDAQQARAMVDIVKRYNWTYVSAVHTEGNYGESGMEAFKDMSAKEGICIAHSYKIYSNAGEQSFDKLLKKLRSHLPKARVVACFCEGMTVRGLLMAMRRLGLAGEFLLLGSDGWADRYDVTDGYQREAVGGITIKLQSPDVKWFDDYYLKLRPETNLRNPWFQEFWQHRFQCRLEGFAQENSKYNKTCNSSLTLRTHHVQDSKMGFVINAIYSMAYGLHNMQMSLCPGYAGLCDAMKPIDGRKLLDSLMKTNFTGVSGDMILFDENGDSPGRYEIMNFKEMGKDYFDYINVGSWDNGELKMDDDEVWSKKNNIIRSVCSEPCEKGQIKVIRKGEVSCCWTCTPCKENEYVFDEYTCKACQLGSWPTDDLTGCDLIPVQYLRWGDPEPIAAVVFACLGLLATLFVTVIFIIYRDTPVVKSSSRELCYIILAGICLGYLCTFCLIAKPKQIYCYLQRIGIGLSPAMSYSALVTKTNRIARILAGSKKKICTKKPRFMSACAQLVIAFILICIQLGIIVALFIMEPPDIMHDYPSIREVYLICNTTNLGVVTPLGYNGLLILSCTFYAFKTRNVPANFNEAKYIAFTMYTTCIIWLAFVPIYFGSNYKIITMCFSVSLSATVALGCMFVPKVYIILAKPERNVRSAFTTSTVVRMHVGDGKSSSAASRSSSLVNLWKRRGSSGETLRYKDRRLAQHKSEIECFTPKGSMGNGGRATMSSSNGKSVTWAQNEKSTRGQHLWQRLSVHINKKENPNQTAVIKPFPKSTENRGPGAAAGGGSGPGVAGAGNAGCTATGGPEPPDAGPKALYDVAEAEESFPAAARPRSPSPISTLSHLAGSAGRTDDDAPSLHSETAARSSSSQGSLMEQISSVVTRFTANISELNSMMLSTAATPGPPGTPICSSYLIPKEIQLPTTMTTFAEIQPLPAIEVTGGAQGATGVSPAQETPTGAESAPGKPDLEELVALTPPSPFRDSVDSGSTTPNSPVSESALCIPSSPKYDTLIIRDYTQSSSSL

[5] = biological target: T3, Metabotropic glutamate receptor 2 (Homo sapiens, UniProt Q14416); assay: Negative allosteric modulation of mGlu2 by cell-based assay
[6] = biological target: T1, Metabotropic glutamate receptor 3; assay: Negative allosteric modulation of mGlu3 by cell-based assay
Target sequence in this assay (Q14832 whole entry): as the sequence (Q14832 whole entry) above

[7] = biological target: T3, Metabotropic glutamate receptor 2; assay: Negative allosteric modulation of mGlu2 assessed as thallium flux through GIRK channels by cell-based assay
[8] = Selectivity index, ratio IC50 for mGlu2 to IC50 for mGlu3
[9] = biological target: T3, Metabotropic glutamate receptor 2; assay: Negative allosteric modulation of human mGlu2 expressed in AV-12 cells in presence of glutamate EC90 concentration by FLIPR assay; assay type: cell-based, AV12
[10] = biological target: T1, Metabotropic glutamate receptor 3; assay: Negative allosteric modulation of human mGlu3 expressed in AV-12 cells in presence of glutamate EC90 concentration by FLIPR assay; assay type: cell-based, AV12
Target sequence in this assay (Q14832 whole entry): as above

[11] = Fraction unbound in rat plasma; assay type: ADME, cell-free
[12] = biological target: T2, Metabotropic glutamate receptor 5; assay: Negative allosteric modulation of mGlu5 assessed as inhibition of glutamate-induced calcium mobilization by cell based assay; assay type: functional
Target sequence in this assay (P31424 whole entry, looked up): as the sequence (P31424 whole entry) above

[13] = Volume of distribution at steady-state concentration in rat at 1 mg/kg, iv; assay type: ADME, organism-based; design: dose 1 mg/kg, route intravenous; conditions: in vivo, read-out: Vdss
[14] = biological target: T1, Metabotropic glutamate receptor 3; assay: Negative allosteric modulation of mGlu3 assessed as inhibition of glutamate-induced calcium mobilization in presence of Galpha15 by cell based assay; assay type: functional
Target sequence in this assay (Q14832 whole entry): as the sequence (Q14832 whole entry) above

[15] = Drug metabolism in human liver microsome assessed as CYP450-mediated (R)-(3-(hydroxymethyl)piperidin-1-yl)(4-((4-hydroxyphenyl)ethynyl)phenyl)methanone formation; assay type: ADME; conditions: microsomes
Brain = assay: Drug level in rat brain at 10 mg/kg; assay type: ADME, organism-based; design: dose 10 mg/kg; conditions: in vivo, read-out: Drug uptake
Cytochrome P450 3A4 = Cytochrome P450 3A4 (Homo sapiens, UniProt P08684); assay: Inhibition of CYP3A4 in human liver microsomes; assay type: ADME, Microsome
[16] = Half life in rat at 1 mg/kg, iv; assay type: ADME, organism-based; design: dose 1 mg/kg, route intravenous; conditions: in vivo
[17] = Drug metabolism in rat liver microsome assessed as CYP450-mediated (R)-(3-(hydroxymethyl)piperidin-1-yl)(4-((4-hydroxyphenyl)ethynyl)phenyl)methanone formation; assay type: ADME; conditions: microsomes
Cytochrome P450 2D6 = Cytochrome P450 2D6 (Homo sapiens, UniProt P10635); assay: Inhibition of CYP2D6 in human liver microsomes; assay type: ADME, Microsome
[18] = Fraction unbound in human plasma; assay type: ADME, cell-free
Cytochrome P450 1A2 = biological target: T4, Cytochrome P450 1A2 (Homo sapiens, UniProt P05177); assay: Inhibition of CYP1A2 in human liver microsomes; assay type: ADME, Microsome
T4 sequence (P05177 whole entry): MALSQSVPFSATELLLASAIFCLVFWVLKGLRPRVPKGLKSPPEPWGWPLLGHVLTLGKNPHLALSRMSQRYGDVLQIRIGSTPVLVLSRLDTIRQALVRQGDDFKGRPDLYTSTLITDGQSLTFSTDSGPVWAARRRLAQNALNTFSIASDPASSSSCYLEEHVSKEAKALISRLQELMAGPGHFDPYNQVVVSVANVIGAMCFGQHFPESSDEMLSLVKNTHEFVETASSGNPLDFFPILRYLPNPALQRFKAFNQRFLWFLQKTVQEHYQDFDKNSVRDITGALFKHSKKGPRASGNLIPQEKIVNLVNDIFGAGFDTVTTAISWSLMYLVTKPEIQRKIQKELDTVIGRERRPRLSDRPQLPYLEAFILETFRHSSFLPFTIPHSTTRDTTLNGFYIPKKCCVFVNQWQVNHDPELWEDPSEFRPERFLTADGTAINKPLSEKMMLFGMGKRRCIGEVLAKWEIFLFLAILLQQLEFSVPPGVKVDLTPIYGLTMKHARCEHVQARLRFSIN

Nucleic Acid = assay: Ratio of drug level in brain to plasma of rat at 10 mg/kg; assay type: ADME, organism-based; design: dose 10 mg/kg
Cytochrome P450 2C9 = Cytochrome P450 2C9 (Homo sapiens, UniProt P11712); assay: Inhibition of CYP2C9 in human liver microsomes; assay type: ADME, Microsome
[19] = Clearance in rat at 1 mg/kg, iv; assay type: ADME, organism-based; design: dose 1 mg/kg, route intravenous; conditions: in vivo
[20] = biological target: T2, Metabotropic glutamate receptor 5; assay: Positive allosteric modulation of mGlu5 assessed as potentiation of glutamate-induced calcium mobilization by cell based assay; assay type: functional
Target sequence in this assay (P31424 whole entry, looked up): as the sequence (P31424 whole entry) above

Plasma = assay: Plasma concentration in rat at 10 mg/kg; assay type: ADME, organism-based; design: dose 10 mg/kg; conditions: in vivo

T3 sequence (Q14416 whole entry): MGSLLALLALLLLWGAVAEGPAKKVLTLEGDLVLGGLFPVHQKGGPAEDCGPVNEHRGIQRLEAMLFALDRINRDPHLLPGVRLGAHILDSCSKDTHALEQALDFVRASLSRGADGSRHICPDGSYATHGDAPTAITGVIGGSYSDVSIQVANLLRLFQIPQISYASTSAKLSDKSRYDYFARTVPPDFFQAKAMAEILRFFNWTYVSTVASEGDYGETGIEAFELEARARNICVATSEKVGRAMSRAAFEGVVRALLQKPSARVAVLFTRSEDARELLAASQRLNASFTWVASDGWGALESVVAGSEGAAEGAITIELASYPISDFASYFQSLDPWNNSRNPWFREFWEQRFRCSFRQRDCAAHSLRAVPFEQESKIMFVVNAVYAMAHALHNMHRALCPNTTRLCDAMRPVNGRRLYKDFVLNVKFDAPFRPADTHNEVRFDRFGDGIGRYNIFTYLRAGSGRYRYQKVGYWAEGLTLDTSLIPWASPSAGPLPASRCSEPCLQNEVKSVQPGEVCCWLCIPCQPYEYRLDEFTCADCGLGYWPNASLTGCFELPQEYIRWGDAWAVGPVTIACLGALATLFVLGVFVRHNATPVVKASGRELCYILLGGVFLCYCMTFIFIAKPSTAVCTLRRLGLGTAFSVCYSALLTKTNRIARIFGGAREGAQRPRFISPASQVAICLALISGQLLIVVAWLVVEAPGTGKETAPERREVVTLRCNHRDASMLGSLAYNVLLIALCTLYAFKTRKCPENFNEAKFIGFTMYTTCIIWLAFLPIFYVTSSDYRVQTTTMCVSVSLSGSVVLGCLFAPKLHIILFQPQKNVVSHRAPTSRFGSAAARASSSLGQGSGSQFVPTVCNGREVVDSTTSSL
Sequence of Cytochrome P450 3A4 (P08684 whole entry): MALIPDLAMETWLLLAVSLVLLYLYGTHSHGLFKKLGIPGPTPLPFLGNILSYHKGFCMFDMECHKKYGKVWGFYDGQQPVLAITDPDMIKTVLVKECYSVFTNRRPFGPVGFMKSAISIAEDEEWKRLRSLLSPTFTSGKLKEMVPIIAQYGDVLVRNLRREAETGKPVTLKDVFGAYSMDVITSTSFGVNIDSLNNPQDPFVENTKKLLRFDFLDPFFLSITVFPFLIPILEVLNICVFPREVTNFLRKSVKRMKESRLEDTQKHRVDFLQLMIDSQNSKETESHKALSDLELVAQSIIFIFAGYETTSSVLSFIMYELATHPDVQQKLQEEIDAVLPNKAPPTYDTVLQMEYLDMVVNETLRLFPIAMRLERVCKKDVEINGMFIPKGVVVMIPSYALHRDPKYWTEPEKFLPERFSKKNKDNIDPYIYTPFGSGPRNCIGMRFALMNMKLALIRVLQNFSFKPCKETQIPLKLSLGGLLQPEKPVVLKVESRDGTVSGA
Sequence of Cytochrome P450 2C9 (P11712 whole entry): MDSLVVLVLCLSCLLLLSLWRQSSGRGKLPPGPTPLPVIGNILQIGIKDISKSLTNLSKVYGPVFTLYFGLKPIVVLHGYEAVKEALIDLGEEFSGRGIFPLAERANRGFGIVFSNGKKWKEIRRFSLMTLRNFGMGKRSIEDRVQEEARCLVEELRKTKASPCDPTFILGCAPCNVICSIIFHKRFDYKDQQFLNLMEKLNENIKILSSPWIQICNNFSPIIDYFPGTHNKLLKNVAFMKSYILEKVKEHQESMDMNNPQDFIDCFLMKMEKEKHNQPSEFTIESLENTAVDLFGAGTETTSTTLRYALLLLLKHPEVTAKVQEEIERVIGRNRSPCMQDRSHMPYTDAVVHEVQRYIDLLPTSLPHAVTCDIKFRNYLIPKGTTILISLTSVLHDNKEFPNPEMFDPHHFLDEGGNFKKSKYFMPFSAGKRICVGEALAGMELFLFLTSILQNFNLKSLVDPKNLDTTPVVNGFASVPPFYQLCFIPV

## CCN1CCC[C@H]1CC(=O)c1ccc(C#Cc2ccc(OC)cc2)cc1
[1]; read-out: IC50
  IC50: > 10 µM
[2]
  inhibition: 9.6%

## COc1ccc(C#Cc2ccc(C(=O)N3CCC[C@@H](C(=O)O)C3)cc2)cc1
[1]; read-out: IC50
  IC50: > 10 µM
[2]
  inhibition: 16.4%

## O=C(c1ccc(C#Cc2ccccc2)cc1)N1CCC(O)CC1
[3]
  IC50: > 10 µM
[4]
  EC50: 0.27 µM

## Cc1cc(-c2cccc(C3=Nc4cc(C)c(C(F)(F)F)cc4NC(=O)C3)c2)cc(C)n1
[5]
  IC50: 0.296 µM
[6]
  IC50: 0.27 µM

## COc1ccc(C#Cc2ccc(C(=O)N3CCC[C@H](C(=O)O)C3)cc2)cc1
[1]; read-out: IC50
  IC50: 5.7 µM
[2]
  inhibition: 2.2%

## COc1ccc(C#Cc2ccc(C(=O)N3CCN(C(C)C)CC3)cc2)cc1
[1]; read-out: IC50
  IC50: > 10 µM
[2]
  inhibition: 7.6%

## Clc1ccc(CN[C@H]2CCN(c3ncc(Br)cn3)C2)c(Cl)c1
[7]
  IC50: 17 µM
[8]
  Ratio IC50: 4
[1]; read-out: IC50
  IC50: 4.2 µM
[9]
  IC50: > 12.5 µM
[10]
  IC50: 0.19 µM

## COc1ccc(C#Cc2ccc(C(=O)N3CCC[C@@H](CO)C3)cc2)cc1
[5]
  IC50: > 10 µM
[11]
  fraction unbound: 0.01
[12]
  IC50: > 10 µM
[13]
  Vd: 0.6 L/kg
[14]
  IC50: 0.66 µM
[8]
  Ratio IC50: 15
[15]
  Drug metabolism: Active
Brain
  concentration: 16.3 µM
[1]; read-out: IC50
  IC50: 1.5 µM
Cytochrome P450 3A4
  IC50: > 30 µM
[2]
  inhibition: -4.4%
[16]
  half-life: 16.8 min
[17]
  Drug metabolism: Active
Cytochrome P450 2D6
  IC50: > 30 µM
[18]
  fraction unbound: 0.02
Cytochrome P450 1A2
  IC50: > 30 µM
Nucleic Acid
  BPR: 1.67
Cytochrome P450 2C9
  IC50: > 30 µM
[19]
  clearance: 33 mL/min/kg
[20]
  EC50: > 10 µM
Plasma
  concentration: 9.7 µM

## COc1ccc(C#Cc2ccc(C(=O)N3CCC(C)(O)CC3)cc2)cc1
[1]; read-out: IC50
  IC50: 5 µM
[2]
  inhibition: 4.4%

## COc1ccc(C#Cc2ccc(C(=O)N3CCCC(O)C3)cc2)cc1 (centres undefined)
[1]; read-out: IC50
  IC50: 2.5 µM
[2]
  inhibition: -1.1%

## COc1ccc(C#Cc2ccc(C(=O)N3CCC(O)CC3)cc2)cc1
[1]; read-out: IC50
  IC50: 3.8 µM
[2]
  inhibition: 10.4%

## COc1ccc(C#Cc2ccc(C(=O)N3CCCC(CO)C3)cc2)cc1 (racemic)
[1]; read-out: IC50
  IC50: 2.1 µM
[2]
  inhibition: 0.5%

## COc1ccc(C#Cc2ccc(C(=O)N3CCC[C@H](CO)C3)cc2)cc1
[5]
  IC50: > 10 µM
[1]; read-out: pIC50 (converted)
  IC50: 3.24 µM
[2]
  inhibition: -1.7%
